According to US11180483B2, “Substituted reverse pyrimidine Bmi-1 inhibitors” (PTC Therapeutics, Inc., priority 2012, dated 2021):

tested on: Bmi-1; test: Sandwich ELISA Assay (Bmi-1 ELISA) in HT-1080 cells; format: cell-based
How it was run: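 Bmi-1 in lysates was measured by a three-antibody ELISA with TMB, OD450 minus OD570 reference, interpolated on a GST-tagged recombinant Bmi-1 standard curve, 0-8000 pg/mL. Lysates came from HT-1080 cells treated 40-48 h with compound, final DMSO 0.5%.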

| SMILES | EC50 [nM] |
| --- | --- |
| Cc1nc2cc(F)c(F)cc2n1-c1nc(N)c(F)c(Nc2ccc(OC(F)F)cc2)n1 [Cpd 133, N-[4-(difluoromethoxy)phenyl]-2-(5,6-difluoro-2-methyl-1H-benzimidazol-1-yl)-5-fluoropyrimidine-4,6-diamine] | 10 to 100 |
| Cc1nc2cc(F)c(F)cc2n1-c1nc(N)c(F)c(Nc2ccc(OC(F)F)c(F)c2)n1 [Cpd 126, N-[4-(difluoromethoxy)-3-fluorophenyl]-2-(5,6-difluoro-2-methyl-1H-benzimidazol-1-yl)-5-fluoropyrimidine-4,6-diamine] | 10 to 100 |
| Cc1nc2cc(F)ccc2n1-c1nc(N)c(F)c(Nc2ccc(OC(F)(F)F)cc2)n1 [Cpd 283, 5-fluoro-2-(5-fluoro-2-methyl-1H-benzimidazol-1-yl)-N-[4-(trifluoromethoxy)phenyl]pyrimidine-4,6-diamine] | 100 to 3000 |
| Cc1ccc(Nc2nc(-n3c(C)nc4cc([N+](=O)[O-])ccc43)nc(N)c2F)cc1 [Cpd 254, 5-fluoro-2-(2-methyl-5-nitro-1H-benzimidazol-1-yl)-N-(4-methylphenyl)pyrimidine-4,6-diamine] | 10 to 100 |
| Cc1nc2cc(F)ccc2n1-c1nc(N)c(F)c(Nc2ccc(Cl)c(F)c2)n1 [Cpd 260, N-(4-chloro-3-fluorophenyl)-5-fluoro-2-(5-fluoro-2-methyl-1H-benzimidazol-1-yl)pyrimidine-4,6-diamine] | 100 to 3000 |
| CCc1nc2ccc(F)cc2n1-c1nc(N)c(F)c(Nc2ccc(C(F)(F)F)cc2)n1 [Cpd 164, 2-(2-ethyl-6-fluoro-1H-benzimidazol-1-yl)-5-fluoro-N-[4-(trifluoromethyl)phenyl]pyrimidine-4,6-diamine] | 10 to 100 |
| Cc1nc2cc(C#N)ccc2n1-c1nc(N)c(F)c(Nc2ccc(OC(F)F)cc2)n1 [Cpd 226, 1-(4-amino-6-{[4-(difluoromethoxy)phenyl]amino}-5-fluoropyrimidin-2-yl)-2-methyl-1H-benzimidazole-5-carbonitrile] | 100 to 3000 |
| Cc1nc2ccc([N+](=O)[O-])cc2n1-c1nc(N)c(F)c(Nc2ccc(C(F)(F)F)cc2)n1 [Cpd 236, 5-fluoro-2-(2-methyl-6-nitro-1H-benzimidazol-1-yl)-N-[4-(trifluoromethyl)phenyl]pyrimidine-4,6-diamine] | 100 to 3000 |
| Cc1ccc(Nc2nc(-n3c(C)nc4ccccc43)nc(N)c2F)cc1 [Cpd 199, 5-fluoro-2-(2-methyl-1H-benzimidazol-1-yl)-N-(4-methylphenyl)pyrimidine-4,6-diamine] | 1 to 10 |
| Nc1nc(-n2c(C3CC3)nc3ccccc32)nc(Nc2ccc(OC(F)F)c(F)c2)c1F [Cpd 122, 2-(2-cyclopropyl-1H-benzimidazol-1-yl)-N-[4-(difluoromethoxy)-3-fluorophenyl]-5-fluoropyrimidine-4,6-diamine] | 10 to 100 |
| FC(F)(F)c1nc2ccc(Cl)cn2c1-c1nccc(Nc2ccc(Br)cc2)n1 [Cpd 15, N-(4-bromophenyl)-2-[6-chloro-2-(trifluoromethyl)imidazo[1,2-a]pyridin-3-yl]pyrimidin-4-amine] | 10 to 100 |
| FC(F)(F)c1ccc(Nc2ccnc(-c3cnc4ccccn34)n2)cc1 [Cpd 118, 2-(imidazo[1,2-a]pyridin-3-yl)-N-[4-(trifluoromethyl)phenyl]pyrimidin-4-amine] | 100 to 3000 |
| COCc1nc2ccccc2n1-c1nc(N)c(F)c(Nc2ccc(C)cc2)n1 [Cpd 217, 5-fluoro-2-[2-(methoxymethyl)-1H-benzimidazol-1-yl]-N-(4-methylphenyl)pyrimidine-4,6-diamine] | 10 to 100 |
| FC(F)Oc1ccc(Nc2ccnc(-c3c(C(F)(F)F)nc4ccccn34)n2)cc1 [Cpd 11, N-[4-(difluoromethoxy)phenyl]-2-[2-(trifluoromethyl)imidazo[1,2-a]pyridin-3-yl]pyrimidin-4-amine] | 100 to 3000 |

The remaining lines, values ahead:

| EC50 [nM] | SMILES |
| --- | --- |
| 10 to 100 | Cc1nc2c(F)cc(F)cc2n1-c1nc(N)c(F)c(Nc2ccc(OC(F)F)cc2)n1 [Cpd 131, N-[4-(difluoromethoxy)phenyl]-2-(4,6-difluoro-2-methyl-1H-benzimidazol-1-yl)-5-fluoropyrimidine-4,6-diamine] |
| 10 to 100 | FC(F)(F)c1nc2ccccn2c1-c1nccc(Nc2ccc(Br)cc2)n1 [Cpd 10, N-(4-bromophenyl)-2-[2-(trifluoromethyl)imidazo[1,2-a]pyridin-3-yl]pyrimidin-4-amine] |
| 1 to 10 | CCc1nc2ccccc2n1-c1nc(N)c(F)c(Nc2ccc(OC)cc2)n1 [Cpd 271, 2-(2-ethyl-1H-benzimidazol-1-yl)-5-fluoro-N-(4-methoxyphenyl)pyrimidine-4,6-diamine] |
| 100 to 3000 | FC(F)(F)Oc1ccc(Nc2ccnc(-c3c(C(F)(F)F)nc4ccc(Cl)cn34)n2)cc1 [Cpd 14, 2-[6-chloro-2-(trifluoromethyl)imidazo[1,2-a]pyridin-3-yl]-N-[4-(trifluoromethoxy)phenyl]pyrimidin-4-amine] |
| 10 to 100 | Cc1nc2ncccc2n1-c1nc(N)c(F)c(Nc2ccc(OC(F)F)cc2)n1 [Cpd 138, N-[4-(difluoromethoxy)phenyl]-5-fluoro-2-(2-methyl-1H-imidazo[4,5-b]pyridin-1-yl)pyrimidine-4,6-diamine] |
| 10 to 100 | Cc1nc2cc(F)c(F)cc2n1-c1nc(N)cc(Nc2ccc(OC(F)F)c(F)c2)n1 [Cpd 101, N-[4-(difluoromethoxy)-3-fluorophenyl]-2-(5,6-difluoro-2-methyl-1H-benzimidazol-1-yl)pyrimidine-4,6-diamine] |
| 10 to 100 | Cc1nc2ccccc2n1-c1nc(N)c(F)c(Nc2ccc(OC(F)F)cc2)n1 [Cpd 106, N-[4-(difluoromethoxy)phenyl]-5-fluoro-2-(2-methyl-1H-benzimidazol-1-yl)pyrimidine-4,6-diamine] |
| 100 to 3000 | Cc1nc2ccc(C(F)(F)F)cn2c1-c1nccc(Nc2ccc(C(F)(F)F)cc2)n1 [Cpd 18, 2-[2-methyl-6-(trifluoromethyl)imidazo[1,2-a]pyridin-3-yl]-N-[4-(trifluoromethyl)phenyl]pyrimidin-4-amine] |
| 10 to 100 | Cc1nc2c(F)cccc2n1-c1nc(N)c(F)c(Nc2ccc(OC(F)F)cc2)n1 [Cpd 135, N-[4-(difluoromethoxy)phenyl]-5-fluoro-2-(4-fluoro-2-methyl-1H-benzimidazol-1-yl)pyrimidine-4,6-diamine] |
| 100 to 3000 | Cc1nc2ccc(Br)cc2n1-c1nc(N)cc(Nc2ccc(C(F)(F)F)cc2)n1 [Cpd 85, 2-(6-bromo-2-methyl-1H-benzimidazol-1-yl)-N-[4-(trifluoromethyl)phenyl]pyrimidine-4,6-diamine] |
| 10 to 100 | CCc1nc2ccccc2n1-c1nc(N)cc(Nc2ccc(OC(F)F)c(F)c2)n1 [Cpd 157, N-[4-(difluoromethoxy)-3-fluorophenyl]-2-(2-ethyl-1H-benzimidazol-1-yl)pyrimidine-4,6-diamine] |
| 10 to 100 | Cc1nc2c(F)cc(F)cc2n1-c1nc(N)c(F)c(Nc2ccc(OC(F)F)c(F)c2)n1 [Cpd 128, N-[4-(difluoromethoxy)-3-fluorophenyl]-2-(4,6-difluoro-2-methyl-1H-benzimidazol-1-yl)-5-fluoropyrimidine-4,6-diamine] |
| 100 to 3000 | Cc1nc2cc(F)c(F)cc2n1-c1nc(N)c(F)c(Nc2ccc(C(F)(F)F)cc2)n1 [Cpd 125, 2-(5,6-difluoro-2-methyl-1H-benzimidazol-1-yl)-5-fluoro-N-[4-(trifluoromethyl)phenyl]pyrimidine-4,6-diamine] |
